Data on six molecules can be found in patent publication US9133168B2, “Pyrimidine derivatives, preparation thereof, and pharmaceutical use thereof as akt(pkb) phosphorylation inhibitors” (SANOFI, priority 2010, dated 2015).

The IC50 is the concentration that gives 50% inhibition. Lower therefore signals inhibition by little substance.

The subject of the assay is AKT protein phosphorylated on serine 473 (P-AKT-S473) in PC3 human prostate carcinoma cells. Description: pAKT expression in PC3 human prostate carcinoma cells, MSD Multi-spot Biomarker detection (Test A). To be noted: 1 to 2 h incubation, P-AKT-S473, absolute IC50, mean of two independent experiments. The format is cell-based. A digest of the protocol: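 Lysate pAKT-S473 measured by electrochemiluminescent sandwich immunoassay; inhibition versus cell-free background and DMSO-only wells, IC50 averaged over two experiments.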

`CC(C)[C@@H]1Cc2ccccc2N1C(=O)Cc1nc(N2CCOCC2)cc(=O)[nH]1` [Example 40c, (+)-2-[2-(2-isopropyl-2,3-dihydroindol-1-yl)-2-oxoethyl]-6-morpholin-4-yl-3H-pyrimidin-4-one] returned a concentration for half-maximal inhibition (IC50) (Homo sapiens, PC-3, PC3 cells) of 0.243 µM.
For the molecule `O=C(Cc1nc(N2CCOCC2)cc(=O)[nH]1)N1c2ccccc2CC1CF` (stereo not drawn) [Example 40d, 2-[2-((−)-2-Fluoromethyl-2,3-dihydroindol-1-yl)-2-oxoethyl]-6-morpholin-4-yl-3H-pyrimidin-4-one], the concentration for half-maximal inhibition (IC50) (PC3 cells) came to 0.013 µM.
The molecule `CC(C(=O)N1CCc2c(F)cccc21)c1nc(N2CCOCC2)cc(=O)[nH]1` (stereo not drawn) [Example 41c, 2-[1-(4-fluoro-2,3-dihydro-1H-indol-1-yl)-1-oxopropan-2-yl]-6-(morpholin-4-yl)pyrimidin-4(3H)-one] yielded a half-maximal inhibitory concentration (IC50) (Homo sapiens, PC-3, PC3 cells) of 0.029 µM.
For the molecule `Nn1c(CC(=O)N2CCc3ccccc32)nc(N2CCOCC2)cc1=O` [Example 41d, 3-amino-2-[2-(2,3-dihydro-1H-indol-1-yl)-2-oxoethyl]-6-(morpholin-4-yl)pyrimidin-4(3H)-one], the IC50 (Homo sapiens, PC-3, PC3 cells) was 0.131 µM.
Still for that read-out and setting: to `N#Cn1c(CC(=O)N2CCc3ccccc32)nc(N2CCOCC2)cc1=O` [Example 42d, 2-[2-(2,3-dihydro-1H-indol-1-yl)-2-oxoethyl]-4-(morpholin-4-yl)-6-oxopyrimidine-1(6H)-carbonitrile] belongs 0.024 µM.
Regarding `N#Cc1cccc2c1CCN2C(=O)Cc1nc(N2CCOCC2)cc(=O)[nH]1` [Example 46c, 1-{[4-(morpholin-4-yl)-6-oxo-1,6-dihydropyrimidin-2-yl]acetyl}-2,3-dihydro-1H-indole-4-carbonitrile], the IC50 (Homo sapiens, PC-3, PC3 cells) amounted to 0.101 µM.
